This note sets out measurements from patent US11123337B2, “4-methylsulfonyl-substituted piperidine urea compounds” (MYOKARDIA, INC., priority 2015, dated 2021).

Sequence of bovine cardiac myosin (Q9BE39 whole entry): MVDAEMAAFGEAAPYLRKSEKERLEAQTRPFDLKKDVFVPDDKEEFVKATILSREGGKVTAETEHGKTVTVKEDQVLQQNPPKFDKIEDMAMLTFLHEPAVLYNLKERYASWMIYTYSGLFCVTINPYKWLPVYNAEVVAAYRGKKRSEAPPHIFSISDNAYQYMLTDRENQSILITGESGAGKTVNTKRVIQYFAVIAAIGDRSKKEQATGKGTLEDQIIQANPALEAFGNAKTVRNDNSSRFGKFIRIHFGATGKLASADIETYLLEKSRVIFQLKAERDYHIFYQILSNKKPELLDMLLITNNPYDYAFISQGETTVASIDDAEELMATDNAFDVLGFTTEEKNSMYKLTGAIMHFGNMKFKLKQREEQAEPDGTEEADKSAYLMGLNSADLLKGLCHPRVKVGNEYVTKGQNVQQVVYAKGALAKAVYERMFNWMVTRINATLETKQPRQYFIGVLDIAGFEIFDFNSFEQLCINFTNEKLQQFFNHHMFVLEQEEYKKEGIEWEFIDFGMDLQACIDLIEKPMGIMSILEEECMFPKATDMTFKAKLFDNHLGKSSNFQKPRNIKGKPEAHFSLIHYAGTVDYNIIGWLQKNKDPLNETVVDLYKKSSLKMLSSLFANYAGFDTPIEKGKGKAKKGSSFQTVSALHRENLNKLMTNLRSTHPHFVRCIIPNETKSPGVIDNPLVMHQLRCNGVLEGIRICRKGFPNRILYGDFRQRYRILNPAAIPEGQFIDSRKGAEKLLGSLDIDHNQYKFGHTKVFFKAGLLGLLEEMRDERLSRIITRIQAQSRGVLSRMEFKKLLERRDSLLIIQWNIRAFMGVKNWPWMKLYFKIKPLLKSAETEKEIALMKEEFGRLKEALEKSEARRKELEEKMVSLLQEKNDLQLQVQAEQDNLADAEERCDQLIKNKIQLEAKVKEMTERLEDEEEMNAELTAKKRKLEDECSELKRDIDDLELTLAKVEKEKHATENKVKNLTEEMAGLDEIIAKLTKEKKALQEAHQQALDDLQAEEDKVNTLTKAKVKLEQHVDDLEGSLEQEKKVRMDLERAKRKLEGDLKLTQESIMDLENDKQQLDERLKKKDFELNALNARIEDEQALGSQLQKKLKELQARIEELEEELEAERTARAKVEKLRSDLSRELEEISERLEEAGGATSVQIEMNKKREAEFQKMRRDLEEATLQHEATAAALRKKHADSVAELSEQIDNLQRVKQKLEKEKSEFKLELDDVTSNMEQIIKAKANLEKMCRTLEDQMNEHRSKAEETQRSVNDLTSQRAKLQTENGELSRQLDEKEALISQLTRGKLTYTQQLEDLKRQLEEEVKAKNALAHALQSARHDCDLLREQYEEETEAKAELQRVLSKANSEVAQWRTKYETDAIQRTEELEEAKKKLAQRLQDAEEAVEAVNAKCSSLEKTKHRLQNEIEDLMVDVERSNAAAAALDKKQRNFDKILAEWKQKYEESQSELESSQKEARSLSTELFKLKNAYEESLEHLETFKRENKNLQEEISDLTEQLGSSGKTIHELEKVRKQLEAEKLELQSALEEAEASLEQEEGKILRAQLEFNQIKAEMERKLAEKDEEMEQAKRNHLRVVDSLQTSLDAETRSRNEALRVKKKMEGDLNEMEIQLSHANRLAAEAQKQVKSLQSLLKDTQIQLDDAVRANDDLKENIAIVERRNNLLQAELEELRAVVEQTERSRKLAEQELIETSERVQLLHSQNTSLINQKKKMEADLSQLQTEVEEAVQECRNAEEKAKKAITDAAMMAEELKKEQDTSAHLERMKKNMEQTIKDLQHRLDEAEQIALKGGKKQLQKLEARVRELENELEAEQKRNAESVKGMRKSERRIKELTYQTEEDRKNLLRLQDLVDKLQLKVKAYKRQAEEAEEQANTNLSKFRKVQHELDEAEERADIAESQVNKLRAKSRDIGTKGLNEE
Sequence of bovine cardiac myosin (P85100 whole entry partner): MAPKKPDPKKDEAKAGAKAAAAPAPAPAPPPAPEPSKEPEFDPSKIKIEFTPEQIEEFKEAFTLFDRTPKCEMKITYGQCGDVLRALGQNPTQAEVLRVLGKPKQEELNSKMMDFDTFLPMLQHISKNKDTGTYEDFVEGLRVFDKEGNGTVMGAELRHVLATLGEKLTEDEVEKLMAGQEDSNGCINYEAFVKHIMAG
Sequence of bovine cardiac myosin (Q3SZE5 whole entry partner): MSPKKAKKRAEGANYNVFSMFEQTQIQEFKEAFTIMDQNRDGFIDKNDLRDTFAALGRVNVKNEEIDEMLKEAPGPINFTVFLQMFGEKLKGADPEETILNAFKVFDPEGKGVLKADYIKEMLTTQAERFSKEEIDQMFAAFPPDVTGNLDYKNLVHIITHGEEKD

The assay concerns the target bovine cardiac myosin (Bos taurus, UniProt Q9BE39). In words: Myosin activation assay (PK/LDH-coupled ATPase, bovine cardiac myofibrils). In kind it is biochemical. The conditions noted are these: AC20 = concentration at which total response is increased by twenty percent. The gist of the method: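 Skinned bovine cardiac myofibrils (1 mg/mL) in PIPES/MgCl2 buffer pH 6.8 at free Ca2+ giving ~50% (pCa ~6) or <5% (pCa 10) activation, with 50 μM ATP and 3.3% DMSO. ATPase rate from NADH absorbance at 340 nm (PK/LDH coupling) over 15 min at ambient temperature. AC20/AC50 from a four-parameter fit of DMSO-normalised rates.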
For the compound `Cc1cc(S(=O)(=O)C(F)(F)C2CCN(C(=O)Nc3ccnnc3)CC2)n(C(C)C)n1` [Compound 87, 4-(difluoro((1-isopropyl-3-methyl-1H-pyrazol-5-yl)sulfonyl)methyl)-N-(pyridazin-4-yl)piperidine-1-carboxamide], the “Myosin Activation (AC20)” value is on record as “+ (+ represents myosin activation value AC20 > 5 μM)”.

With `O=C(Nc1ccnnc1)N1CCC(C(F)(F)S(=O)(=O)c2ccc(O)nc2)CC1` [Compound 88, 4-(difluoro((6-hydroxypyridin-3-yl)sulfonyl)methyl)-N-(pyridazin-4-yl)piperidine-1-carboxamide], the “Myosin Activation (AC20)” value is recorded as “+ (+ represents myosin activation value AC20 > 5 μM)”. On to `Cn1nc(C(C)(C)C)cc1S(=O)(=O)C(F)(F)C1CCN(C(=O)Nc2ccnnc2)CC1` [Compound 89, 4-(((3-(tert-butyl)-1-methyl-1H-pyrazol-5-yl)sulfonyl)difluoromethyl)-N-(pyridazin-4-yl)piperidine-1-carboxamide], for which the “Myosin Activation (AC20)” value is recorded as “+ (+ represents myosin activation value AC20 > 5 μM)”. With `Cc1cc(S(=O)(=O)C(F)(F)C2CCN(C(=O)Nc3ccnnc3)CC2)n(C2CC2)n1` [Compound 90, 4-(((1-cyclopropyl-3-methyl-1H-pyrazol-5-yl)sulfonyl)difluoromethyl)-N-(pyridazin-4-yl)piperidine-1-carboxamide], the “Myosin Activation (AC20)” value is “+ (+ represents myosin activation value AC20 > 5 μM)”. As to `O=C(Nc1ccnnc1)N1CCC(C(F)(F)S(=O)(=O)c2ccc3ccnn3c2)CC1` [Compound 91, 4-(difluoro(pyrazolo[1,5-a]pyridin-6-ylsulfonyl)methyl)-N-(pyridazin-4-yl)piperidine-1-carboxamide], the “Myosin Activation (AC20)” value is listed as “++ (++ represents myosin activation value AC20 from 2 μM-5 μM)”. Consider `O=C(Nc1ccnnc1)N1CCC(C(F)(F)S(=O)(=O)c2ccc(O)cc2Cl)CC1` [Compound 92, 4-(((2-chloro-4-hydroxyphenyl)sulfonyl)difluoromethyl)-N-(pyridazin-4-yl)piperidine-1-carboxamide], for which the “Myosin Activation (AC20)” value is “++ (++ represents myosin activation value AC20 from 2 μM-5 μM)”. With `O=C(Nc1ccnnc1)N1CCC(C(F)(F)S(=O)(=O)c2cnn3ccccc23)CC1` [Compound 93, 4-(difluoro(pyrazolo[1,5-a]pyridin-3-ylsulfonyl)methyl)-N-(pyridazin-4-yl)piperidine-1-carboxamide] the entry was “++ (++ represents myosin activation value AC20 from 2 μM-5 μM)”; with `Cn1nccc1S(=O)(=O)C(F)(F)C1CCN(C(=O)Nc2ccnnc2)CC1` [Compound 94, 4-(difluoro((1-methyl-1H-pyrazol-5-yl)sulfonyl)methyl)-N-(pyridazin-4-yl)piperidine-1-carboxamide], “+ (+ represents myosin activation value AC20 > 5 μM)”; with `O=C(Nc1ccnnc1)N1CCC(C(F)(F)S(=O)(=O)c2ccccc2-n2cccn2)CC1` [Compound 95, 4-(((2-(1H-pyrazol-1-yl)phenyl)sulfonyl)difluoromethyl)-N-(pyridazin-4-yl)piperidine-1-carboxamide], “+ (+ represents myosin activation value AC20 > 5 μM)”. To `CN(C)c1ncccc1S(=O)(=O)C(F)(F)C1CCN(C(=O)Nc2ccnnc2)CC1` [Compound 96, 4-(((2-(dimethylamino)pyridin-3-yl)sulfonyl)difluoromethyl)-N-(pyridazin-4-yl)piperidine-1-carboxamide] belongs “+ (+ represents myosin activation value AC20 > 5 μM)”; to `C[C@H](O)c1cc(NC(=O)N2CCC(C(F)(F)S(=O)(=O)c3cccc(F)c3)CC2)ccn1` [Compound 97, (S)-4-(difluoro((3-fluorophenyl)sulfonyl)methyl)-N-(2-(1-hydroxyethyl)pyridin-4-yl)piperidine-1-carboxamide], “+ (+ represents myosin activation value AC20 > 5 μM)”. To `C[C@@H](O)c1cc(NC(=O)N2CCC(C(F)(F)S(=O)(=O)c3cccc(F)c3)CC2)ccn1` [Compound 98, (R)-4-(difluoro((3-fluorophenyl)sulfonyl)methyl)-N-(2-(1-hydroxyethyl)pyridin-4-yl)piperidine-1-carboxamide] belongs “+ (+ represents myosin activation value AC20 > 5 μM)”; to `C[C@H](O)c1cc(NC(=O)N2CCC(C(F)(F)S(=O)(=O)c3cn(C)nc3C(F)F)CC2)ccn1` [Compound 99, (S)-4-(((3-(difluoromethyl)-1-methyl-1H-pyrazol-4-yl)sulfonyl)difluoromethyl)-N-(2-(1-hydroxyethyl)pyridin-4-yl)piperidine-1-carboxamide], “+ (+ represents myosin activation value AC20 > 5 μM)”.

Turning to `C[C@@H](O)c1cc(NC(=O)N2CCC(C(F)(F)S(=O)(=O)c3cn(C)nc3C(F)F)CC2)ccn1` [Compound 100, (R)-4-(((3-(difluoromethyl)-1-methyl-1H-pyrazol-4-yl)sulfonyl)difluoromethyl)-N-(2-(1-hydroxyethyl)pyridin-4-yl)piperidine-1-carboxamide], the “Myosin Activation (AC20)” value is reported as “+ (+ represents myosin activation value AC20 > 5 μM)”. To `Cn1cc(S(=O)(=O)C(F)(F)C2CCN(C(=O)Nc3ccnc(CO)c3)CC2)c(C(F)F)n1` [Compound 101, 4-(((3-(difluoromethyl)-1-methyl-1H-pyrazol-4-yl)sulfonyl)difluoromethyl)-N-(2-(hydroxymethyl)pyridin-4-yl)piperidine-1-carboxamide] belongs “++ (++ represents myosin activation value AC20 from 2 μM-5 μM)”.

Turning to `CC(C)(C1CCN(C(=O)Nc2ccon2)CC1)S(=O)(=O)c1ccc(C#N)cc1` [Compound 102, 4-(2-((4-cyanophenyl)sulfonyl)propan-2-yl)-N-(isoxazol-3-yl)piperidine-1-carboxamide], the “Myosin Activation (AC20)” value is reported as “+ (+ represents myosin activation value AC20 > 5 μM)”.

For `Cn1cc(S(=O)(=O)C(C)(C)C2CCN(C(=O)Nc3ccnnc3)CC2)c(Cl)n1` [Compound 103, 4-(2-((3-chloro-1-methyl-1H-pyrazol-4-yl)sulfonyl)propan-2-yl)-N-(pyridazin-4-yl)piperidine-1-carboxamide], the “Myosin Activation (AC20)” value is given as “++ (++ represents myosin activation value AC20 from 2 μM-5 μM)”. To `CC(C)(C1CCN(C(=O)Nc2ccc(F)nc2)CC1)S(=O)(=O)c1ccc(C(F)(F)F)nc1` [Compound 104, N-(6-fluoropyridin-3-yl)-4-(2-((6-(trifluoromethyl)pyridin-3-yl)sulfonyl)propan-2-yl)piperidine-1-carboxamide] belongs “+ (+ represents myosin activation value AC20 > 5 μM)”.

In the case of `Cn1nc(C(F)F)cc1S(=O)(=O)C(C)(C)C1CCN(C(=O)Nc2ccnc(F)c2)CC1` [Compound 105, 4-(2-((3-(difluoromethyl)-1-methyl-1H-pyrazol-5-yl)sulfonyl)propan-2-yl)-N-(2-fluoropyridin-4-yl)piperidine-1-carboxamide], the “Myosin Activation (AC20)” value was “+++ (+++ represents myosin activation value AC20 < 2 μM)”. With `Cn1nc(C(F)F)cc1S(=O)(=O)C(C)(C)C1CCN(C(=O)Nc2ccc(F)nc2)CC1` [Compound 106, 4-(2-((3-(difluoromethyl)-1-methyl-1H-pyrazol-5-yl)sulfonyl)propan-2-yl)-N-(6-fluoropyridin-3-yl)piperidine-1-carboxamide] the entry was “++ (++ represents myosin activation value AC20 from 2 μM-5 μM)”.
